Data on 33 molecules can be found in patent US20150239889A1, “PYRAZOLOPYRIMIDINE COMPOUND” (MITSUBISHI TANABE PHARMA CORPORATION, priority 2012, published 2015).

One experiment addresses T1, human HIF-PHD3 (Homo sapiens, UniProt Q9H6Z9).
T1 construct: purchased CrystalGenomics Ltd
The experiment can be described thus: HIF-PHD inhibition assay (fluorescence polarization), human HIF-PHD3. The format is biochemical. The settings on record: 2-oxoglutaric acid 166 μmol/L. The method, boiled down: (§1)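 Measured signal: mP difference, after versus before enzyme addition, representing enzyme activity. Detection relied on a FAM-tagged, ACA-spaced fluorescent probe.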
For orientation: In fluorescence polarisation assays a small probe gives low polarisation when free and higher when bound to something large.

The target in another experiment is T2, human HIF-PHD2 (Homo sapiens, UniProt Q9GZT9).
T2 construct: purchased CrystalGenomics Ltd
T2 sequence (Q9GZT9 2-426 limits assumed): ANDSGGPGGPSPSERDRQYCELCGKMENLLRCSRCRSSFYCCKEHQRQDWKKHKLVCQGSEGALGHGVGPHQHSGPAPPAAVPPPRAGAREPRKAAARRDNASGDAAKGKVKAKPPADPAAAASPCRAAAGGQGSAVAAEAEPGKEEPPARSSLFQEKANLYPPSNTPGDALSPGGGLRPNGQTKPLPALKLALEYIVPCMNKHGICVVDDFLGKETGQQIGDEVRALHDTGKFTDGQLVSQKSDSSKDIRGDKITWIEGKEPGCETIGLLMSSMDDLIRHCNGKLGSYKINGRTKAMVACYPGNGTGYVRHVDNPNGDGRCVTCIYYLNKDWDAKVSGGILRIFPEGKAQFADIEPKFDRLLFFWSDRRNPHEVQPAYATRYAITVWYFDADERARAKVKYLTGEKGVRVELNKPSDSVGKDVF
The experiment can be described thus: HIF-PHD inhibition assay (fluorescence polarization), human HIF-PHD2. The format is biochemical. Particulars: 2-oxoglutaric acid 3.33 μmol/L. In outline:
as §1

A further experiment relates to Hep3B cells. The experiment can be described thus: EPO production assay (ELISA of culture supernatant). The settings on record: Homo sapiens, 3 μmol/L test compound, 48 hours, relative to control (0.1% DMSO), read-out: EPO production stimulation rate with 3 μmol/L test compound. It counts as cell-based. As to the method: The stimulatory effect of the compound onEPO production was determined as follows using Hep3B cells.
Cells were seeded on 96 well plates at 40000 cells/well, and the plate was incubated overnight in MEM medium containing 10% fetal bovine serum (FBS) at 37° C. under 5% CO2. The next day, the medium was replaced with MEM containing 0.5% FBS, followed by addition of test compound. The test compound was dissolved in dimethyl sulfoxide and added to the cell so that the final concentration of dimethyl sulfoxide was 0.1%. After incubation for additional 48 hours, the culture supernatant was collected, and EPO contained in the supernatant was determined using ELISA kit (EPO ELISA Kit 11-693-417-001, Roche Co.). The results were expressed as stimulation rate of EPO production (fold), which was calculated as the relative value of the EPO production with 3 μmol/L of the test compound compared to the EPO production without stimulation (control).
Stimulation rate of EPO production (fold)=(EPO production with addition of test compound)/(EPO production of control)
(An ELISA detects its analyte on a solid surface through an enzyme-linked reagent.)

T1 sequence (Q9H6Z9 whole entry): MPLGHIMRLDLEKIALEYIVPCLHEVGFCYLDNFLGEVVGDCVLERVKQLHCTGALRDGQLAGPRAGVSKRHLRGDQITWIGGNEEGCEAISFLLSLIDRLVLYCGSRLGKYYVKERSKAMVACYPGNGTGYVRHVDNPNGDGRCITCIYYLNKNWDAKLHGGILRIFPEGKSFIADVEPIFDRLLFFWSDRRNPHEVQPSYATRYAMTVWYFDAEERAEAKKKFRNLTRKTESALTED

`Cc1nn([C@@H](C)c2ccc(Cl)c(Cl)c2)c2c(O)nc(-n3cc(C(=O)O)cn3)nc12` [Example 447]: the IC50 was determined as 560 nM at human HIF-PHD3 and 20 nM at human HIF-PHD2. Further, the fold induction at 3 µM with Hep3B cells turned out to be 5.4.

On to `Cc1cc2c(cc1OCCCn1ncc3nc(-n4cc(C(=O)O)cn4)nc(O)c31)CCCC2` [Example 189], for which the IC50 against human HIF-PHD3 is 150 nM; at human HIF-PHD2, 20 nM. In the experiment with Hep3B cells, the fold induction at 3 µM came out at 8.7.

Take `CCC(CC)Cn1nc(F)c2nc(-n3cc(C(=O)O)cn3)nc(O)c21` [Example 498]: the concentration for half-maximal inhibition (IC50) against human HIF-PHD3 was 310 nM; against human HIF-PHD2 it was 49 nM. In addition, the fold induction at 3 µM with Hep3B cells worked out at 2.7.

`O=C(O)c1cnn(-c2nc(O)c3nn(Cc4ccc(Cl)c(Cl)c4)cc3n2)c1` [Example 235]: the IC50 on human HIF-PHD3 came out at 13 nM; against human HIF-PHD2 it was 3 nM. The fold induction at 3 µM in the experiment with Hep3B cells was 1.9.

For `O=C(O)c1cnn(-c2nc(O)c3c(cnn3Cc3ccc4ccccc4c3F)n2)c1` [Example 34], the figures for the IC50 on human HIF-PHD3 and against human HIF-PHD2 were 240 nM and 17 nM, respectively. In addition, the fold induction at 3 µM with Hep3B cells worked out at 1.2.

For `C[C@@H](c1ccc(C(F)(F)F)cc1)n1nc(F)c2nc(-n3cc(C(=O)O)cn3)nc(O)c21` [Example 439], the IC50 on human HIF-PHD3 came to 550 nM; against human HIF-PHD2, 22 nM. In addition, the fold induction at 3 µM with Hep3B cells was 5.3.

Take `CCC(c1ccc(C(F)(F)F)cc1)n1ncc2nc(-n3cc(C(=O)O)cn3)nc(O)c21` (single isomer, unassigned) [Example 327]: the concentration for half-maximal inhibition (IC50) at human HIF-PHD3 came out at 1200 nM; on human HIF-PHD2, 290 nM. Further, the fold induction at 3 µM in the experiment on Hep3B cells was 9.4.

For the molecule `CCCC(C)(C)Cn1ncc2nc(-n3cc(C(=O)O)cn3)nc(O)c21` [Example 493], the IC50 amounted to 550 nM at human HIF-PHD3 and 86 nM at human HIF-PHD2. The fold induction at 3 µM in the experiment on Hep3B cells stood at 2.8.

For `O=C(O)c1cnn(-c2nc(O)c3c(cnn3C[C@H]3CC[C@H](Oc4ccc(F)cc4)CC3)n2)c1` [Example 149], the results for the IC50 against human HIF-PHD3 and on human HIF-PHD2 were 54 nM and 17 nM, respectively. Further, the fold induction at 3 µM with Hep3B cells was determined as 22.

In the case of `CC1(Cn2nc(F)c3nc(-n4cc(C(=O)O)cn4)nc(O)c32)CCCCC1` [Example 470], the figures for the half-inhibitory concentration (IC50) against human HIF-PHD3 and against human HIF-PHD2 were 260 nM and 48 nM, respectively. Besides, the fold induction at 3 µM in the experiment on Hep3B cells amounted to 1.7.

For the molecule `O=C(O)c1cnn(-c2nc(O)c3c(cnn3C[C@H]3CC[C@@H](Oc4ccc(F)cc4)CC3)n2)c1` [Example 150], the IC50 was 410 nM against human HIF-PHD3 and 39 nM at human HIF-PHD2. Also, the fold induction at 3 µM in the experiment with Hep3B cells amounted to 9.

On to `C[C@@H](c1ccc2ccccc2c1)n1nc(F)c2nc(-n3cc(C(=O)O)cn3)nc(O)c21` [Example 442], for which the values for the IC50 against human HIF-PHD3 and on human HIF-PHD2 were 360 nM and 11 nM, respectively. For the same molecule, in the experiment on Hep3B cells, the fold induction at 3 µM is 3.3.

In the case of `O=C(O)c1cnn(-c2nc(O)c3c(cnn3CCCn3ccc4ccccc43)n2)c1` [Example 167], the IC50 against human HIF-PHD3 came out at 140 nM; at human HIF-PHD2 it was 17 nM. For the same molecule, in the experiment with Hep3B cells, the fold induction at 3 µM is 2.1.

`O=C(O)c1cnn(-c2nc(O)c3c(cnn3CCOc3cccc(C(F)(F)F)c3)n2)c1` [Example 202]: the IC50 worked out at 300 nM on human HIF-PHD3 and 59 nM against human HIF-PHD2. The fold induction at 3 µM with Hep3B cells was determined as 3.6.

Consider `O=C(O)c1cnn(-c2nc(O)c3nn(Cc4ccc(Cl)cc4F)cc3n2)c1` [Example 244], for which the results for the IC50 against human HIF-PHD3 and on human HIF-PHD2 were 180 nM and 63 nM, respectively. Moreover, the fold induction at 3 µM with Hep3B cells turned out to be 1.4.

`C[C@@H](c1ccc(Cl)c(Cl)c1)n1nc(F)c2nc(-n3cc(C(=O)O)cn3)nc(O)c21` [Example 440]: the IC50 worked out at 160 nM on human HIF-PHD3 and 17 nM against human HIF-PHD2. In the experiment with Hep3B cells, the fold induction at 3 µM was 2.6.

With `O=C(O)c1cnn(-c2nc(O)c3c(cnn3CCOc3ccc4c(c3)CCCC4)n2)c1` [Example 208], the results for the IC50 on human HIF-PHD3 and on human HIF-PHD2 were 240 nM and 14 nM, respectively. Further, the fold induction at 3 µM in the experiment on Hep3B cells is 7.1.

For the molecule `O=C(O)c1cnn(-c2nc(O)c3c(cnn3Cc3cc(F)cc(-c4ccccc4)c3)n2)c1` [Example 50], the IC50 at human HIF-PHD3 is 320 nM; on human HIF-PHD2, 51 nM. The fold induction at 3 µM in the experiment on Hep3B cells is 6.3.

Regarding `COc1ccccc1-c1ccc(Cn2ncc3nc(-n4cc(C(=O)O)cn4)nc(O)c32)c(F)c1` [Example 85], the IC50 against human HIF-PHD3 was determined as 66 nM; on human HIF-PHD2, 11 nM. The fold induction at 3 µM in the experiment on Hep3B cells was 4.

As for `O=C(O)c1cnn(-c2nc(O)c3[nH]ncc3n2)c1` [Example 484], the IC50 on human HIF-PHD3 is > 1000 nM; against human HIF-PHD2, 35 nM. Besides, in the experiment on Hep3B cells, the fold induction at 3 µM came to 1.6.

As for `O=C(O)c1cnn(-c2nc(O)c3c(cnn3CCCOc3ccc4ccccc4c3)n2)c1` [Example 187], the IC50 is 220 nM at human HIF-PHD3 and 12 nM against human HIF-PHD2. Moreover, in the experiment with Hep3B cells, the fold induction at 3 µM was determined as 10.

Take `O=C(O)c1cnn(-c2nc(O)c3c(cnn3Cc3ccc(F)c(Br)c3)n2)c1` [Example 14]: the IC50 is 280 nM at human HIF-PHD3 and 31 nM against human HIF-PHD2. Besides, in the experiment with Hep3B cells, the fold induction at 3 µM was 1.4.

In the case of `O=C(O)c1cnn(-c2nc(O)c3c(n2)c(F)nn3CC2CCC3(CCC3)CC2)c1` [Example 467], the IC50 on human HIF-PHD3 is 270 nM; against human HIF-PHD2, 15 nM. The fold induction at 3 µM in the experiment with Hep3B cells came to 3.2.

Regarding `COc1ccccc1-c1ccc([C@H](C)n2ncc3nc(-n4cc(C(=O)O)cn4)nc(O)c32)cc1` [Example 113], the results for the concentration for half-maximal inhibition (IC50) against human HIF-PHD3 and against human HIF-PHD2 were 85 nM and 5.3 nM, respectively. Also, the fold induction at 3 µM in the experiment on Hep3B cells was 7.5.

Take `O=C(O)c1cnn(-c2nc(O)c3c(cnn3CCc3ccc4ccccc4n3)n2)c1` [Example 117]: the concentration for half-maximal inhibition (IC50) at human HIF-PHD3 stood at 520 nM; against human HIF-PHD2, 37 nM. Further, in the experiment on Hep3B cells, the fold induction at 3 µM came out at 2.

For `O=C(O)c1cnn(-c2nc(O)c3c(cnn3CCc3ccc4ccccc4c3)n2)c1` [Example 116], the IC50 came to 190 nM at human HIF-PHD3 and 21 nM against human HIF-PHD2. Besides, the fold induction at 3 µM in the experiment with Hep3B cells came out at 4.

For the molecule `C[C@@H](c1cccc(-c2ccccc2)c1)n1ncc2nc(-n3cc(C(=O)O)cn3)nc(O)c21` [Example 54], the IC50 against human HIF-PHD3 worked out at 250 nM; against human HIF-PHD2, 18 nM. In addition, in the experiment with Hep3B cells, the fold induction at 3 µM worked out at 5.6.

Take `O=C(O)c1cnn(-c2nc(O)c3nn(Cc4ccc5ccccc5c4)cc3n2)c1` [Example 242]: the concentration for half-maximal inhibition (IC50) against human HIF-PHD3 was found to be 150 nM; against human HIF-PHD2, 17 nM. The fold induction at 3 µM in the experiment with Hep3B cells was 1.7.

In the case of `O=C(O)c1cnn(-c2nc(O)c3c(cnn3Cc3cccc(-c4ccccc4F)c3)n2)c1` [Example 46], the IC50 against human HIF-PHD3 amounted to 85 nM; against human HIF-PHD2 it was 68 nM. Also, the fold induction at 3 µM with Hep3B cells came to 3.7.

Regarding `O=C(O)c1cnn(-c2nc(O)c3c(n2)c(F)nn3C2CCCCC2)c1` [Example 478], the IC50 at human HIF-PHD3 was 370 nM; at human HIF-PHD2, 45 nM. Further, in the experiment on Hep3B cells, the fold induction at 3 µM is 1.8.

Regarding `CC(C)(COc1ccc(Cl)cc1)Cn1ncc2nc(-n3cc(C(=O)O)cn3)nc(O)c21` [Example 197], the 50% inhibitory concentration (IC50) against human HIF-PHD3 was determined as 760 nM; against human HIF-PHD2, 190 nM. Also, in the experiment with Hep3B cells, the fold induction at 3 µM was found to be 5.8.

Take `O=C(O)c1cnn(-c2nc(O)c3c(cnn3Cc3ccc(-c4ccc(F)cc4)cc3)n2)c1` [Example 66]: the IC50 was found to be 110 nM at human HIF-PHD3 and 17 nM against human HIF-PHD2. Besides, in the experiment with Hep3B cells, the fold induction at 3 µM was 33.

`Cc1ccc(OC(C)(C)Cn2ncc3nc(-n4cc(C(=O)O)cn4)nc(O)c32)c2c1CCC2` [Example 211]: the results for the IC50 against human HIF-PHD3 and at human HIF-PHD2 were 180 nM and 26 nM, respectively. In the experiment with Hep3B cells, the fold induction at 3 µM came to 8.9.

By IC50 is commonly meant the point on the concentration scale where inhibition reaches its midpoint.
